Assays:
[1] = system: other cell cultures; assay: Omega-3 fatty acid concentrations in other cell cultures; format: cell-based; conditions: compared with linolenic acid (18:3n-3)
[2] = Beagle feeding study, diets supplemented with SDA or linolenic acid; format: in vivo, beagles; conditions: dogs, low essential fatty acid diet 90 days
Text: Experiments are also designed to evaluate the effect of SDA on the pet, such as a dog or cat. As an example, beagles are provided with a low essential fatty acid diet for a period of 90 days. Diets supplemented with SDA or linolenic acid are provided for the subsequent 30 days.

[3] = system: Alkaline phosphatase (ALP) activity in osteoblast cells MC3T3-E1; assay: Alkaline phosphatase (ALP) activity, method of Lowry; format: cell-based; conditions: all time points evaluated; relative to linolenic acid
Procedure: (§1) Experiments are conducted to determine how SDA treatment of osteoblast-like cells in culture influence the polyunsaturated fatty acid (PUFA) composition. The osteoblast cell line MC3T3-E1 is cultured in growth medium (GM) consisting of DMEM supplemented with 10% fetal bovine serum (FBS), ascorbic acid, β-glycerol-phosphate, and 1% antimicrobial solution. The cells are plated in 24-well plates at a density of 1.2×10^4 cells per ml for 3 days until confluent. Once confluent, corresponding to the initialization of the osteoblastic phenotype, the medium is either changed for SDA or linoleic acid (LNA) treatment or cultured further in GM until subjected to the various treatments. At the end of the 3 day fatty acid treatment period, cultures are exposed to agents that induce COX-2 expression. The two agents utilized are forskolin (FSK) and interleukin-1 (IL-1). These agents are selected on the basis of their respective actions on the COX-2 gene. Forskolin, an activator of adenylate cyclase, increases cyclic-AMP (cAMP) concentrations. Interleukin-1, itself a bone resorption agent binding to its receptor on the cellular membrane, launches a cascade resulting in the activation of the transcription factor nuclear-factor κ-B (NFκB). Cyclic-AMP and NFκB both activate the expression of the COX-2 gene. […]
Enzyme activity: Alkaline phosphatase (ALP) activity is determined by the method of Lowry.

[4] = system: PGE2 production in osteoblasts; assay: PGE2 formation in osteoblasts (enzyme immunoassay); format: cell-based
Procedure: as §1, with “concentrations.” for “concentrations. Interleukin-1, itself a bone resorption agent binding to its receptor on the cellular membrane, launches a cascade resulting in the activation of the transcription factor nuclear-factor κ-B (NFκB). Cyclic-AMP and NFκB both activate the expression of the COX-2 gene.”
Western Blot. […] Optical density is determined using Optimus image analyzing software (version 6.1). […]
PGE2 Formation. In the experiments, already detailed in the section on Western blotting, PGE2 levels in the medium of induced and non-induced cells are determined using an enzyme immunoassay kit (Cayman Chemical, Ann Arbor, Mich.).

[5] = system: osteoblast cell line MC3T3-E1; assay: Fatty acid compositional analysis of osteoblasts; format: cell-based
Procedure: Experiments are conducted to determine how SDA treatment of osteoblast-like cells in culture influence the polyunsaturated fatty acid (PUFA) composition. The osteoblast cell line MC3T3-E1 is cultured in growth medium (GM) consisting of DMEM supplemented with 10% fetal bovine serum (FBS), ascorbic acid, β-glycerol-phosphate, and 1% antimicrobial solution. The cells are plated in 24-well plates at a density of 1.2×10^4 cells per ml for 3 days until confluent. Once confluent, corresponding to the initialization of the osteoblastic phenotype, the medium is either changed for SDA or […] (LNA) treatment or cultured further in GM until subjected to the various treatments. At the end of the 3 day fatty acid treatment period, cultures are exposed to agents that induce COX-2 expression. The two agents utilized are forskolin (FSK) and interleukin-1 (IL-1). These agents are selected on the basis of their respective actions on the COX-2 gene. Forskolin, an activator of adenylate cyclase, increases cyclic-AMP (cAMP) concentrations. Interleukin-1, itself a bone resorption agent binding to its receptor on the cellular membrane, launches a cascade resulting in the activation of the transcription factor nuclear-factor κ-B (NFκB). Cyclic-AMP and NFκB both activate the expression of the COX-2 gene. Cyclic-AMP activates the expression of the COX-2 gene via the cAMP-response element binding protein (CREBP), which binds to the cAMP response element (CRE) in the COX-2 promoter. The COX-2 promoter also contains an NFκB binding element.
Fatty Acid Compositional Analysis of Osteoblasts. Osteoblast cells exposed to the PUFA treatments (SDA and LNA) are subjected to a gas chromotographic analysis of the FAME from extracted lipids of washed cells.

[6] = then supplemented diet 30 days, compared to linolenic acid diet

Structure (SMILES): CC/C=C\C/C=C\C/C=C\C/C=C\CCCCC(=O)O [SDA, 6Z, 9Z, 12Z, 15Z-octadecatetraenoic acid]
- altering the concentrations of omega-3 fatty acid [1]: more effective
- arachidonic acid in plasma and liver ([2]; then SDA supplemented diet 30 days): trend of decreased arachidonic acid
- concentrations of 22:5n-3 in red blood cell membranes, plasma, and liver tissue [2, 6]: elevated concentrations
- concentrations of EPA in red blood cell membranes, plasma, and liver tissue [2, 6]: elevated concentrations
- activity of alkaline phosphatase [3]: highest activity
- PGE2 production in osteoblasts [4]: attenuate PGE2 production
- concentrations of total omega-3 fatty acid in osteoblasts ([5]; SDA at increasing treatment levels): increased concentrations
- 22:5n-3 in osteoblasts ([5]; SDA treatment of osteoblasts): particularly elevates
- EPA in osteoblasts ([5]; SDA treatment of osteoblasts): particularly elevates

Reference: patent US20090143468A1, “PET FOOD COMPOSITIONS AND METHODS” (priority 2004, published 2009)
